8 molecules from US5391540A, “Substituted pyridine compounds” (Rohm and Haas Company, priority 1993, dated 1995) can be followed below.

What all share (assay): Pre-emergent herbicidal activity (Table A)
Common to all, as to type: in vivo

In assay [1] the test system is Seedling Johnsongrass. The conditions noted are these: Sorghum halepense, pre-emergence, Sejg, 11.2 kg/ha, 10-14 days, read-out: herbicidal rating (% inhibition). The method in brief: (§1)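 Compound incorporated into the cover-soil layer over sown seed at a rate equivalent to 11.2 kg/ha (acetone or water carrier). Greenhouse growth with watering as needed; ratings reflect percent inhibition per species, recorded around day 11 (range 10–14).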

Assay [2] deals with Indian Mustard. As to conditions: Brassica juncea, pre-emergence, Inmu, 11.2 kg/ha, 10-14 days, read-out: herbicidal rating (% inhibition). An outline of the steps: as §1
For assay [3], the system named is Annual Bluegrass. As to conditions: pre-emergence, Anbg, 11.2 kg/ha, 10-14 days, read-out: herbicidal rating (% inhibition). The method in brief:
as §1

Assay [4] relates to Wild Buckwheat. As to conditions: Fallopia convolvulus, pre-emergence, Wibw, 11.2 kg/ha, 10-14 days, read-out: herbicidal rating (% inhibition). An outline of the steps: as §1
Assay [5] concerns Barnyardgrass. As to conditions: Echinochloa crus-galli, pre-emergence, Bygr, 11.2 kg/ha, 10-14 days, read-out: herbicidal rating (% inhibition). The method in brief:
(§2)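 Seeds or vegetative propagules were set on topsoil compacted to 0.95 to 1.27 cm below the pan rim, then covered with soil thoroughly mixed with a known amount of test compound in acetone or water carrier. Ratings follow a scale of percent inhibition per species.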

Assay [6] has as its system Morningglory. The conditions noted are these: Ipomoea, pre-emergence, Mogl, 11.2 kg/ha, 10-14 days, read-out: herbicidal rating (% inhibition). An outline of the steps:
as §2

Assay [7] relates to Downy Brome. As to conditions: Bromus tectorum, pre-emergence, Dobr, 11.2 kg/ha, 10-14 days, read-out: herbicidal rating (% inhibition). The method in brief: as §2
Assay [8] relates to Cocklebur. The conditions noted are these: Xanthium strumarium, pre-emergence, Cobu, 11.2 kg/ha, 10-14 days, read-out: herbicidal rating (% inhibition). An outline of the steps: as §2
The test system of assay [9] is Velvetleaf. As to conditions: Abutilon theophrasti, pre-emergence, Vele, 11.2 kg/ha, 10-14 days, read-out: herbicidal rating (% inhibition). The method in brief:
as §2

Assay [10] relates to Yellow Nutsedge. As to conditions: Cyperus, pre-emergence, Yens, 11.2 kg/ha, 10-14 days, read-out: herbicidal rating (% inhibition). An outline of the steps:
as §2

The inhibition is the share of the control response that was lost under treatment. With `COC(=O)c1c(OC)nc(C(F)(F)F)c(C(=O)N2CCCO2)c1CC(C)C` [Compound 132, 3-pyridinecarboxylic acid, 5-(2-isoxazolidinecarbonyl)-2-methoxy-4-(2-methylpropyl)-6-(trifluoromethyl)-, methyl ester], the inhibition at 11200 g/ha in [1] fell in the range of 75 to 100%; in assay [2], 75 to 100%; in [3], 75 to 100%; in [4], 75 to 100%; in [5], 75 to 100%; in assay [6] it was 50 to 74%. Also, the inhibition at 11200 g/ha in assay [7] was in the range of 75 to 100%; in assay [8], 0 to 24%; in assay [9], 75 to 100%; in [10], 0 to 24%.
Turning to `COc1nc(C(F)(F)F)c(C(=O)Cl)c(CC(C)C)c1C(=O)SC` [Compound 133, 3-pyridinecarbothioic acid, 5-(chlorocarbonyl)-2-methoxy-4-(2-methylpropyl)-6-(trifluoromethyl)-, S-methyl ester], the inhibition at 11200 g/ha in [1] was 0 to 24%; in [2], 25 to 49%; in assay [3] it was 0 to 24%; in [4], 0 to 24%; in [5], 0 to 24%; in [6], 0 to 24%. Besides, the inhibition at 11200 g/ha in [7], in assay [8], in assay [9] and in [10] was 0 to 24% throughout.
Consider `COc1nc(C(F)(F)F)c(CO)c(CC(C)C)c1C(=O)SC` [Compound 134, 3-pyridinecarbothioic acid, 5-(hydroxymethyl)-2-methoxy-4-(2-methylpropyl)-6-(trifluoromethyl)-, S-methyl ester], for which the inhibition at 11200 g/ha in assay [1] is 0 to 24%; in [2], 25 to 49%; in assay [3], 75 to 100%; in assay [4], 0 to 24%; in assay [5], 75 to 100%; in [6], 0 to 24%. Further, the inhibition at 11200 g/ha in assay [7] was in the range of 0 to 24%; in assay [8], 0 to 24%; in assay [9], 50 to 74%; in assay [10], 0 to 24%.
As to `COc1nc(C(F)(F)F)c(C=O)c(CC(C)C)c1C(=O)SC` [Compound 135, 3-pyridinecarbothioic acid, 5-formy1-2-methoxy-4-(2-methylpropyl)-6-(trifluoromethyl)-, S-methyl ester], the inhibition at 11200 g/ha lay within 50 to 74% in [1]; 75 to 100% in assay [2]; 75 to 100% in [3]; 25 to 49% in assay [4]; 75 to 100% in [5]; 0 to 24% in assay [6]. For the same molecule, the inhibition at 11200 g/ha in assay [7] was 75 to 100%; in assay [8] it was 0 to 24%; in assay [9], 50 to 74%; in [10] it was 0 to 24%.
With `COc1nc(C(F)(F)F)c(C2OCCCO2)c(CC(C)C)c1C(=O)SC` [Compound 136, 3-pyridinecarbothioic acid, 5-(1,3-dioxan-2-yl)-2-methoxy-4-(2-methylpropyl)-6-(trifluoromethyl)-, S-methyl ester], the inhibition at 11200 g/ha in assay [1] fell in the range of 75 to 100%; in assay [2], 75 to 100%; in assay [3], 75 to 100%; in assay [4], 75 to 100%; in [5], 75 to 100%; in assay [6], 50 to 74%. In addition, the inhibition at 11200 g/ha lay within 75 to 100% in assay [7], 50 to 74% in assay [8], 50 to 74% in assay [9] and 25 to 49% in assay [10].
Turning to `COC(=O)c1c(OC)nc(C(F)(F)F)c(C(=O)Cl)c1C1CCC1` [Compound 138, 3-pyridinecarboxylic acid, 5-(chlorocarbonyl)-4-cyclobuty1-2-methoxy-6-(trifluoromethyl)-, methyl ester], the inhibition at 11200 g/ha in assay [1], in assay [2], in [3], in assay [4], in assay [5] and in assay [6] was 0 to 24% throughout. Besides, the inhibition at 11200 g/ha in [7], in [8], in assay [9] and in assay [10] was 0 to 24% throughout.
Turning to `COC(=O)c1c(OC)nc(C(F)(F)F)c(C=O)c1C1CCC1` [Compound 139, 3-pyridinecarboxylic acid, 4-cyclobuty1-5-formy1-2-methoxy-6-(trifluoromethyl)-, methyl ester], the inhibition at 11200 g/ha in assay [1] is 75 to 100%; in [2] it was 75 to 100%; in assay [3], 75 to 100%; in assay [4], 75 to 100%; in assay [5] it was 75 to 100%; in assay [6] it was 50 to 74%. For the same molecule, the inhibition at 11200 g/ha in [7] was in the range of 75 to 100%; in [8] it was 0 to 24%; in [9], 75 to 100%; in assay [10], 0 to 24%.
As for `COC(=O)c1c(OC)nc(C(F)(F)F)c(C(=O)n2cncn2)c1C1CCC1` [Compound 141], the inhibition at 11200 g/ha in [1], in assay [2], in assay [3], in assay [4], in assay [5] and in [6] was 75 to 100% throughout. Further, the inhibition at 11200 g/ha in [7] lay in the range of 75 to 100%; in assay [8] it was 0 to 24%; in [9], 75 to 100%; in assay [10], 50 to 74%.
